From the NIST ThermoML archive (doi:10.1021/acs.jced.5b00784)

How the values were obtained:
[1] = xn = mol fraction of the nth substance listed; settings: Liquid, Vibrating tube method, x2 = 0.377
[2] = Liquid, isochoric method

COC(F)(F)C(F)(C(F)(F)F)C(F)(F)F [methyl nonafluoroisobutyl ether] + COC(F)(F)C(F)(F)C(F)(F)C(F)(F)F
[1]
Settings | mass density [kg/m3]
275.02 K, 1984 kPa | 1579.6
277.09 K, 3723 kPa | 1579.2
279.26 K, 5543 kPa | 1578.7
279.43 K, 273 kPa | 1564.5
279.75 K, 524 kPa | 1564.4
279.75 K, 527 kPa | 1564.4
280.37 K, 972 kPa | 1563.7
280.46 K, 1101 kPa | 1564.3
280.94 K, 1442 kPa | 1564.2
281.34 K, 7289 kPa | 1578.3
281.55 K, 1942 kPa | 1563.5
281.92 K, 2278 kPa | 1564
281.94 K, 2249 kPa | 1564
282.38 K, 2648 kPa | 1563.9
283.21 K, 3315 kPa | 1563.7
283.5 K, 9101 kPa | 1577.9
283.65 K, 3673 kPa | 1563.6
284.04 K, 3949 kPa | 1563.6
284.44 K, 4290 kPa | 1563.5
285.1 K, 4838 kPa | 1563.3
285.42 K, 5083 kPa | 1563.3
285.49 K, 10769 kPa | 1577.5
285.94 K, 5471 kPa | 1563.2
286.26 K, 5744 kPa | 1563.1
286.26 K, 5757 kPa | 1563.1
286.61 K, 5994 kPa | 1562.5
286.95 K, 6330 kPa | 1562.9
287.26 K, 6535 kPa | 1562.3
287.54 K, 6765 kPa | 1562.9
287.54 K, 6789 kPa | 1562.9
287.59 K, 12510 kPa | 1577.1
287.68 K, 6872 kPa | 1562.8
288.04 K, 7178 kPa | 1562.8
288.9 K, 7893 kPa | 1562.5
289.56 K, 14156 kPa | 1576.7
289.6 K, 8425 kPa | 1562.5
289.6 K, 8448 kPa | 1562.5
289.6 K, 8462 kPa | 1562.2
289.72 K, 8502 kPa | 1562.4
291.62 K, 15869 kPa | 1576.2
291.67 K, 10052 kPa | 1562
291.67 K, 10070 kPa | 1562
291.67 K, 10101 kPa | 1562
292.61 K, 10815 kPa | 1561.9
292.7 K, 10872 kPa | 1561.2
293.44 K, 11481 kPa | 1561.7
293.52 K, 17446 kPa | 1575.9
294.31 K, 12183 kPa | 1561.5
295.32 K, 12982 kPa | 1561.3
295.59 K, 19153 kPa | 1575.4
296.29 K, 13751 kPa | 1561.1
298.57 K, 15560 kPa | 1560.7
299.64 K, 16411 kPa | 1560.5
300.65 K, 17215 kPa | 1560.3
301.34 K, 17761 kPa | 1560.1
302.6 K, 18751 kPa | 1559.9
302.6 K, 18786 kPa | 1559.9

FC(C(F)(F)F)C(F)(F)F [1,1,1,2,3,3,3-heptafluoropropane]
[2]
Settings | mass density [kg/m3]
268.92 K, 1786 kPa | 1509.3
271.83 K, 3840 kPa | 1508.5
274.3 K, 5598 kPa | 1508.1
277.7 K, 8059 kPa | 1507.7
279.51 K, 839 kPa | 1466.6
280.8 K, 10284 kPa | 1507.3
281.32 K, 1993 kPa | 1465.2
283.42 K, 3331 kPa | 1464.8
283.61 K, 12288 kPa | 1507
285.37 K, 4577 kPa | 1464.6
286.43 K, 1142 kPa | 1441.9
286.67 K, 1203 kPa | 1440.9
286.7 K, 14495 kPa | 1506.7
287.36 K, 5848 kPa | 1464.3
288.43 K, 2193 kPa | 1440
289.14 K, 2747 kPa | 1440.7
289.31 K, 16361 kPa | 1506.4
289.41 K, 7162 kPa | 1464.1
290.44 K, 3367 kPa | 1439.5
291.46 K, 8474 kPa | 1463
292 K, 4466 kPa | 1440.2
292.45 K, 4875 kPa | 1439.1
293.4 K, 9717 kPa | 1463.7
294.61 K, 5846 kPa | 1438.9
294.98 K, 6251 kPa | 1439.8
295.29 K, 10924 kPa | 1463.5
296.72 K, 7101 kPa | 1438
297.18 K, 12136 kPa | 1463.3
297.85 K, 7978 kPa | 1439.5
298.7 K, 8273 kPa | 1438.5
299.38 K, 13527 kPa | 1463.1
300.87 K, 9562 kPa | 1438.2
300.89 K, 9788 kPa | 1439.2
301.4 K, 14839 kPa | 1462.9
302.74 K, 10686 kPa | 1438.1
302.94 K, 15829 kPa | 1462.8
303.82 K, 11544 kPa | 1438.9
304.8 K, 11916 kPa | 1437.9
306.88 K, 13381 kPa | 1438.6
306.95 K, 13205 kPa | 1437.7
309 K, 14427 kPa | 1437.5
310.05 K, 15281 kPa | 1438.3
311.05 K, 15654 kPa | 1437.3
312.85 K, 16727 kPa | 1437.1
312.95 K, 17014 kPa | 1438
